Patent US20230303486A1, “CYCLOBUTYL-UREA DERIVATIVES” (Idorsia Pharmaceuticals Ltd, priority 2020, published 2023)
pEC50: −log10 of the molar value.

Tests used:
[1] = tested on: audiogenic generalized convulsive seizures in DBA/2J mice; assay: Audiogenic seizure-sensitive mouse model of generalized convulsive seizures; assay type: in vivo; details: 10 mg/kg po, challenge 1h
Experimental: (§1) Compounds were formulated in a 10% polyethylene glycol 400 (PEG 400) / 90% aqueous solution of 0.5 % methylcellulose (MC 0.5%). Firstly drugs are dissolved in PEG 400 and then suspended in MC 0.5 % for oral gavage at Xmg/5 mL/kg (X see table).
• 1. Procedure: Following two days of acclimatisation, auditory seizures are induced in male juvenile DBA/2J mice (22-24 days old; Janvier Labs, France). Each mouse is placed individually in the exposure chamber, an hemispheric acrylic glass dome (diameter: 50 cm) within a sound-attenuated box. The soundattenuated box is equipped with two house lights and a camera system (Fire-I from Unibrain) in order to observe and record the behavioral seizure response. After 60 seconds of habituation, the stimulus, a mixed frequency tone of 15-20 kHz at 110 dB (SASLab Lite, Avisoft Bioacoustics), is played from a speaker that is placed on the top center of the dome. […] Seizures are classified as following: stage 0, normal behavior; stage 1, wild running; stage 2, generalized clonus; stage 3, tonic extension of the hind limbs. • 2. Compounds testing: Acute compound effects on audiogenic generalized convulsive seizures are evaluated in independent groups of 8-10 mice randomly assigned. Following oral administration of compound or vehicle, the maximum seizure stage during sound exposure is assessed. Compounds are given 1 hour before exposure to the stimulus. Each mouse is exposed to the auditory stimulus only once and euthanized afterwards by CO2 inhalation.

[2] = tested on: fully kindled Wistar rats; assay: Amygdala-kindling rat model; assay type: in vivo; details: challenge 1 h
Experimental: as §1
• 1. Procedure: Adult male Wistar rats (Harlan Laboratories, Netherlands, or Charles Rivers, Germany; body weight 300-350 g) were stereotaxically implanted with twisted bipolar plastic-coated stainless steel electrode (MS333-2-BIU 10 mm, Plastics One) into the right basolateral amygdala under isoflurane anesthesia. To place the electrode, trepanations were made in the skull and the electrode was lowered into the right basolateral amygdala (from bregma: anteriorposterior (AP): -2.5 mm, medio-lateral (ML): -3.5 mm, dorso-ventral (DV): -8.6 mm; α=10^0) and secured to the skull with screws and dental acrylate. After one week of recovery, they were handled daily and habituated over one week to the kindling setup. Kindling procedure: For a kindling session each rat was placed individually into a smooth acrylic plastic, round-bottomed bowl (0 36 cm, height 36 cm, BASi movement-responsive caging system) and its intracranial implanted electrode was connected to the stimulator (STG4008, Multichannel Systems GmbH) and the recording devices (PowerLab 8/35, ADInstruments Ltd) via a cable (335-340/3 (C), Plastics One). For the kindling procedure, each rat was exposed once daily to an electrical stimulation and the behavioral symptoms of the evoked seizure were observed and classified according to the modified Racine scale (stage 0, arrest, wet dog shakes, normal behaviour; stage 1, facial twitches: nose, lips, eyes; stage 2, chewing, head nodding; stage 3, forelimb clonus; stage 4, rearing, falling on forelimbs; stage 5, rearing, falling on side or back, rolling). […] The duration of electroencephalographic seizures (afterdischarge, AD) was recorded using LabChart7 Pro software (ADInstruments Ltd). Simultaneously, videos were recorded to evaluate seizure stage (SS). • 2. Compound testing: Acute drug effects were evaluated in groups of 6-8 fully kindled rats in a randomized cross-over design with 48h between drug and vehicle applications. Following oral administration of drug or vehicle, drug testing included determination of the afterdischarge threshold (the minimal stimulation intensity necessary to evoke an afterdischarge (electroencephalographically measured neuronal hyper-synchronous activity with an amplitude 2-times higher than baseline amplitude and a frequency of […]) of at least 3 sec duration) and monitoring electroencephalographic and behavioral correlates of the evoked seizure at ADT (afterdischarge threshold), including AD duration and SS, by a experimenter blind to treatment assignment.

[3] = molecular target: T1, Kv7.2/7.3 (human KCNQ2 and KCNQ3 genes) in HEK293 cells (Homo sapiens, UniProt O43525+O43526); assay: Kv7.2/3 assay (FLIPR potassium assay, agonist mode); assay type: cell-based; details: Kv7.2/7.3 activation, responses relative to Flupirtine
T1 construct: host or cells: HEK293
Experimental: HEK293 cells were stably transfected with the appropriate ion channel cDNA(s) (human KCNQ2 and KCNQ3 genes). Cells were cultured in Dulbecco’s Modified Eagle Medium /Nutrient mixture F-12 (D-MEM/F-12) supplemented with 10% fetal bovine serum, 100 U/mL penicillin G sodium, 100 µg/mL streptomycin sulfate and selection antibiotics. FLIPR Test Procedure: For FLIPR assay, cells were plated in 384-well black clear-bottomed microtiter plates (BD Biocoat Poly-D-Lysine Multiwell Cell Culture Plate) at 15′000 to 30′000 cells per well. Cells were incubated at 37° C. overnight or until cells reached sufficient density in the wells (near confluent monolayer) to use in fluorescence assays. […] Assays were performed with the FLIPR potassium assay kit (Molecular Devices) according to the manufacturer’s instructions. Dye-loading: Growth media was removed and replaced with 20 µL of dye loading buffer for 60 min at room temperature. FLIPR Recording (agonist mode): Stock solutions of test compounds were prepared at a concentration of 33.3 mM in DMSO. 5 µL of 5x concentrated test, vehicle, or control compounds solutions prepared in the stimulation buffer (K^+-free buffer with 5 mM TI^+) were added to each well and fluorescence recording was continued for 5 min. The agonist effect (EC50 and % effect) of test or control compounds on Kv7 channels was determined as follows: Raw data was exported using Screenworks® 4.2 software and the fluorescence traces were analysed using Microsoft Excel (Microsoft Corp., Redmond, WA). The test compounds responses were expressed as % of maximum response of the control compound Flupirtine (Sigma-Aldrich), which was tested at concentrations ranging from 0.03 to 100 µM. Concentration-response data were fitted to a Hill equation. Non-linear least squares fits were made assuming a simple binding model. If appropriate, fits were weighted by the standard deviation. No assumptions about the fit parameters were made; the fit parameters were determined by the algorithm.

| pEC50 [3] | SMILES | Seizure stage [% vs. vehicle] [1] [% vs. vehicle] | AD duration [% vs veh] ([2]; 30 mg/kg po) | Seizure stage [% vs veh] ([2]; 30 mg/kg po) | AD duration [% vs veh] ([2]; 10 mg/kg po) | Seizure stage [% vs veh] ([2]; 10 mg/kg po) |
| --- | --- | --- | --- | --- | --- | --- |
| 7.09 | O=C(NCc1cccc(C(F)(F)F)c1)NC1CC(C(F)F)C1 (single isomer, unassigned) [Example 53, 1-(3-(Difluoromethyl)Cyclobutyl)-3-(3-(Trifluoromethyl)Benzyl)Urea] | -78 | -93 | -81 |  |  |
| 7.23 | O=C(NCc1cccc(C(F)(F)F)c1)NC12CC(C(F)F)(C1)C2 [Example 47, 1-(3-Difluoromethyl-Bicyclo[1.1.1]Pent-1-yl)-3-(3-Trifluoromethyl-Benzyl)-Urea] | -92 |  |  | -85 | -70 |
